Measured values reported in ChEMBL document CHEMBL5724914, “Linking interpersonal differences in gut microbiota composition and drug biotransformation activity” (2024).

Test: (§1) The drug is tested on Z-030 corresponding to mouse gut metagenome with ENA study accession number: PRJEB37062 and ENA sample accession number: ERS12561829 for biotransformation under anaerobic condition. The drug concentrations were measured over 9 timepoints collected between 0 and 24 hours of incubation by liquid-chromatography-coupled mass spectrometry (LC–MS)
Conditions: 2 µM
Note: call rule not given here.

Row | SMILES | Bacterial Biotransformation
1 | Cc1cc2c(s1)Nc1ccccc1N=C2N1CCN(C)CC1 [OLANZAPINE] | Compound NOT metabolized
2 | COc1ccc(Cc2nccc3cc(OC)c(OC)cc23)cc1OC [PAPAVERINE] | Compound NOT metabolized
3 | CC(=O)OCC(=O)NCCCOc1cccc(CN2CCCCC2)c1 [ROXATIDINE ACETATE] | Compound NOT metabolized

Test: as §1, with “Z-026” for “Z-030”, “to” for “to mouse gut”, “ERS12561825” for “ERS12561829”
Conditions: 2 µM

Row | SMILES | Bacterial Biotransformation
4 | Cc1cc2c(s1)Nc1ccccc1N=C2N1CCN(C)CC1 [OLANZAPINE] | Compound NOT metabolized
5 | COc1ccc(Cc2nccc3cc(OC)c(OC)cc23)cc1OC [PAPAVERINE] | Compound NOT metabolized
6 | CC(=O)OCC(=O)NCCCOc1cccc(CN2CCCCC2)c1 [ROXATIDINE ACETATE] | Compound metabolized

Test: as §1, with “Z-020” for “Z-030”, “rabbit” for “mouse”, “ERS12561819” for “ERS12561829”
Conditions: 2 µM

Row | SMILES | Bacterial Biotransformation
7 | Cc1cc2c(s1)Nc1ccccc1N=C2N1CCN(C)CC1 [OLANZAPINE] | Compound NOT metabolized
8 | COc1ccc(Cc2nccc3cc(OC)c(OC)cc23)cc1OC [PAPAVERINE] | Compound NOT metabolized
9 | CC(=O)OCC(=O)NCCCOc1cccc(CN2CCCCC2)c1 [ROXATIDINE ACETATE] | Compound metabolized

Test: as §1, with “Z-008” for “Z-030”, “to” for “to mouse gut”, “ERS12561808” for “ERS12561829”
Conditions: 2 µM

Row | SMILES | Bacterial Biotransformation
10 | Cc1cc2c(s1)Nc1ccccc1N=C2N1CCN(C)CC1 [OLANZAPINE] | Compound NOT metabolized
11 | COc1ccc(Cc2nccc3cc(OC)c(OC)cc23)cc1OC [PAPAVERINE] | Compound NOT metabolized
12 | CC(=O)OCC(=O)NCCCOc1cccc(CN2CCCCC2)c1 [ROXATIDINE ACETATE] | Compound metabolized

Test: as §1, with “Z-003” for “Z-030”, “pig” for “mouse”, “ERS12561803” for “ERS12561829”
Conditions: 2 µM

Row | SMILES | Bacterial Biotransformation
13 | Cc1cc2c(s1)Nc1ccccc1N=C2N1CCN(C)CC1 [OLANZAPINE] | Compound metabolized
14 | COc1ccc(Cc2nccc3cc(OC)c(OC)cc23)cc1OC [PAPAVERINE] | Compound metabolized
15 | CC(=O)OCC(=O)NCCCOc1cccc(CN2CCCCC2)c1 [ROXATIDINE ACETATE] | Compound metabolized

Test: as §1, with “WLS-310” for “Z-030”, “human” for “mouse”, “ERS12561785” for “ERS12561829”
Conditions: 2 µM

Row | SMILES | Bacterial Biotransformation
16 | Cc1cc2c(s1)Nc1ccccc1N=C2N1CCN(C)CC1 [OLANZAPINE] | Compound NOT metabolized
17 | COc1ccc(Cc2nccc3cc(OC)c(OC)cc23)cc1OC [PAPAVERINE] | Compound metabolized
18 | CC(=O)OCC(=O)NCCCOc1cccc(CN2CCCCC2)c1 [ROXATIDINE ACETATE] | Compound metabolized

Test: as §1, with “WLS-220” for “Z-030”, “human” for “mouse”, “ERS12561769” for “ERS12561829”
Conditions: 2 µM

Row | SMILES | Bacterial Biotransformation
19 | Cc1cc2c(s1)Nc1ccccc1N=C2N1CCN(C)CC1 [OLANZAPINE] | Compound NOT metabolized
20 | COc1ccc(Cc2nccc3cc(OC)c(OC)cc23)cc1OC [PAPAVERINE] | Compound metabolized
21 | CC(=O)OCC(=O)NCCCOc1cccc(CN2CCCCC2)c1 [ROXATIDINE ACETATE] | Compound metabolized

Test: as §1, with “WLS-077” for “Z-030”, “human” for “mouse”, “ERS12561750” for “ERS12561829”
Conditions: 2 µM

Row | SMILES | Bacterial Biotransformation
22 | Cc1cc2c(s1)Nc1ccccc1N=C2N1CCN(C)CC1 [OLANZAPINE] | Compound metabolized
23 | COc1ccc(Cc2nccc3cc(OC)c(OC)cc23)cc1OC [PAPAVERINE] | Compound NOT metabolized
24 | CC(=O)OCC(=O)NCCCOc1cccc(CN2CCCCC2)c1 [ROXATIDINE ACETATE] | Compound metabolized

Test: as §1, with “WLS-007” for “Z-030”, “human” for “mouse”, “ERS12561742” for “ERS12561829”
Conditions: 2 µM

Row | SMILES | Bacterial Biotransformation
25 | Cc1cc2c(s1)Nc1ccccc1N=C2N1CCN(C)CC1 [OLANZAPINE] | Compound NOT metabolized
26 | COc1ccc(Cc2nccc3cc(OC)c(OC)cc23)cc1OC [PAPAVERINE] | Compound metabolized
27 | CC(=O)OCC(=O)NCCCOc1cccc(CN2CCCCC2)c1 [ROXATIDINE ACETATE] | Compound metabolized

Conditions: human gut metagenome, 24 h, 2 µM

Row | SMILES | Bacterial Biotransformation
28 | Cc1cc2c(s1)Nc1ccccc1N=C2N1CCN(C)CC1 [OLANZAPINE] | Compound NOT metabolized
29 | COc1ccc(Cc2nccc3cc(OC)c(OC)cc23)cc1OC [PAPAVERINE] | Compound metabolized
30 | CC(=O)OCC(=O)NCCCOc1cccc(CN2CCCCC2)c1 [ROXATIDINE ACETATE] | Compound metabolized

Conditions: human gut metagenome, 24 h, 2 µM
Remark: another data set of the same source

Row | SMILES | Bacterial Biotransformation
31 | Cc1cc2c(s1)Nc1ccccc1N=C2N1CCN(C)CC1 [OLANZAPINE] | Compound NOT metabolized
32 | COc1ccc(Cc2nccc3cc(OC)c(OC)cc23)cc1OC [PAPAVERINE] | Compound metabolized
33 | CC(=O)OCC(=O)NCCCOc1cccc(CN2CCCCC2)c1 [ROXATIDINE ACETATE] | Compound metabolized

Conditions: human gut metagenome, 24 h, 2 µM
Remark: another data set of the same source

Row | SMILES | Bacterial Biotransformation
34 | Cc1cc2c(s1)Nc1ccccc1N=C2N1CCN(C)CC1 [OLANZAPINE] | Compound NOT metabolized
35 | COc1ccc(Cc2nccc3cc(OC)c(OC)cc23)cc1OC [PAPAVERINE] | Compound metabolized
36 | CC(=O)OCC(=O)NCCCOc1cccc(CN2CCCCC2)c1 [ROXATIDINE ACETATE] | Compound metabolized

Conditions: human gut metagenome, 24 h, 2 µM
Remark: another data set of the same source

Row | SMILES | Bacterial Biotransformation
37 | Cc1cc2c(s1)Nc1ccccc1N=C2N1CCN(C)CC1 [OLANZAPINE] | Compound metabolized
38 | COc1ccc(Cc2nccc3cc(OC)c(OC)cc23)cc1OC [PAPAVERINE] | Compound metabolized
39 | CC(=O)OCC(=O)NCCCOc1cccc(CN2CCCCC2)c1 [ROXATIDINE ACETATE] | Compound metabolized

Conditions: human gut metagenome, 24 h, 2 µM
Remark: another data set of the same source

Row | SMILES | Bacterial Biotransformation
40 | Cc1cc2c(s1)Nc1ccccc1N=C2N1CCN(C)CC1 [OLANZAPINE] | Compound NOT metabolized
41 | COc1ccc(Cc2nccc3cc(OC)c(OC)cc23)cc1OC [PAPAVERINE] | Compound metabolized
42 | CC(=O)OCC(=O)NCCCOc1cccc(CN2CCCCC2)c1 [ROXATIDINE ACETATE] | Compound NOT metabolized

Conditions: human gut metagenome, 24 h, 2 µM
Remark: another data set of the same source

Row | SMILES | Bacterial Biotransformation
43 | Cc1cc2c(s1)Nc1ccccc1N=C2N1CCN(C)CC1 [OLANZAPINE] | Compound NOT metabolized
44 | COc1ccc(Cc2nccc3cc(OC)c(OC)cc23)cc1OC [PAPAVERINE] | Compound metabolized
45 | CC(=O)OCC(=O)NCCCOc1cccc(CN2CCCCC2)c1 [ROXATIDINE ACETATE] | Compound metabolized

Conditions: human gut metagenome, 24 h, 2 µM
Remark: another data set of the same source

Row | SMILES | Bacterial Biotransformation
46 | Cc1cc2c(s1)Nc1ccccc1N=C2N1CCN(C)CC1 [OLANZAPINE] | Compound NOT metabolized
47 | COc1ccc(Cc2nccc3cc(OC)c(OC)cc23)cc1OC [PAPAVERINE] | Compound metabolized
48 | CC(=O)OCC(=O)NCCCOc1cccc(CN2CCCCC2)c1 [ROXATIDINE ACETATE] | Compound NOT metabolized

Conditions: human gut metagenome, 24 h, 2 µM
Remark: another data set of the same source

Row | SMILES | Bacterial Biotransformation
49 | Cc1cc2c(s1)Nc1ccccc1N=C2N1CCN(C)CC1 [OLANZAPINE] | Compound NOT metabolized
50 | CC(=O)OCC(=O)NCCCOc1cccc(CN2CCCCC2)c1 [ROXATIDINE ACETATE] | Compound metabolized

Conditions: human gut metagenome, 24 h, 2 µM
Remark: another data set of the same source

Row | SMILES | Bacterial Biotransformation
51 | Cc1cc2c(s1)Nc1ccccc1N=C2N1CCN(C)CC1 [OLANZAPINE] | Compound metabolized
52 | COc1ccc(Cc2nccc3cc(OC)c(OC)cc23)cc1OC [PAPAVERINE] | Compound NOT metabolized
53 | CC(=O)OCC(=O)NCCCOc1cccc(CN2CCCCC2)c1 [ROXATIDINE ACETATE] | Compound metabolized

Conditions: human gut metagenome, 24 h, 2 µM
Remark: another data set of the same source

Row | SMILES | Bacterial Biotransformation
54 | COc1ccc(Cc2nccc3cc(OC)c(OC)cc23)cc1OC [PAPAVERINE] | Compound metabolized

Conditions: human gut metagenome, 24 h, 2 µM
Remark: another data set of the same source

Row | SMILES | Bacterial Biotransformation
55 | COc1ccc(Cc2nccc3cc(OC)c(OC)cc23)cc1OC [PAPAVERINE] | Compound metabolized
56 | CC(=O)OCC(=O)NCCCOc1cccc(CN2CCCCC2)c1 [ROXATIDINE ACETATE] | Compound metabolized
